This note sets out measurements from ChEMBL document CHEMBL3045381, “Antiproliferative activity of pentadeca-(8E, 13Z) dien-11-yn-2-one and (E)-1,8-pentadecadiene from Echinacea pallida (Nutt.) Nutt. roots” (Med Chem Res, 2013).

Format in all cases: functional, cell-based
Assay [1] concerns C6. Description: Antiproliferative activity against Rattus norvegicus (rat) C6 cells at 5 to 75 ug/ml after 24 hr by BRdU incorporation assay.
The subject of assay [2] is HeLa. Description: Antiproliferative activity against Homo sapiens (human) HeLa cells at 5 to 40 ug/ml after 24 hr by BRdU incorporation assay.
Assay [3] has as its system HeLa. Description: Antiproliferative activity against Homo sapiens (human) HeLa cells at 5 to 100 ug/ml after 24 hr by BRdU incorporation assay.
The test system of assay [4] is C6. Description: Antiproliferative activity against Rattus norvegicus (rat) C6 cells at 5 to 100 ug/ml after 24 hr by BRdU incorporation assay.

Calls of active or inactive are those of the source. The rule behind the calls is not given here.

For the compound `C/C=C\C#CC/C=C\CCCCCC(C)=O`, the outcome in the assay with C6 [1] and in the assay with HeLa [2] was Active.

With `C=CCCCCC/C=C/CCCCCC`, the result with HeLa [3] and with C6 [4] was inactive.
